Measurements published in PMC8315011, “The Spleen Tyrosine Kinase Inhibitor, Entospletinib (GS-9973) Restores Chemosensitivity in Lung Cancer Cells by Modulating ABCG2-mediated Multidrug Resistance” (International Journal of Biological Sciences, 2021).

How the values were obtained:
ABCG2 [1] = target: T1, ABCG2 (Homo sapiens, UniProt Q9UNQ0); assay: ABCG2 ATPase stimulation in membrane vesicles ([…] of basal); supported by inhibition of [3H]-mitoxantrone efflux in NCI-H460/MX20 cells at […]; assay type: biochemical; set-up: membrane vesicles with ABCG2 (PREDEASY ATPase kit)
T1 sequence (Q9UNQ0 1-655): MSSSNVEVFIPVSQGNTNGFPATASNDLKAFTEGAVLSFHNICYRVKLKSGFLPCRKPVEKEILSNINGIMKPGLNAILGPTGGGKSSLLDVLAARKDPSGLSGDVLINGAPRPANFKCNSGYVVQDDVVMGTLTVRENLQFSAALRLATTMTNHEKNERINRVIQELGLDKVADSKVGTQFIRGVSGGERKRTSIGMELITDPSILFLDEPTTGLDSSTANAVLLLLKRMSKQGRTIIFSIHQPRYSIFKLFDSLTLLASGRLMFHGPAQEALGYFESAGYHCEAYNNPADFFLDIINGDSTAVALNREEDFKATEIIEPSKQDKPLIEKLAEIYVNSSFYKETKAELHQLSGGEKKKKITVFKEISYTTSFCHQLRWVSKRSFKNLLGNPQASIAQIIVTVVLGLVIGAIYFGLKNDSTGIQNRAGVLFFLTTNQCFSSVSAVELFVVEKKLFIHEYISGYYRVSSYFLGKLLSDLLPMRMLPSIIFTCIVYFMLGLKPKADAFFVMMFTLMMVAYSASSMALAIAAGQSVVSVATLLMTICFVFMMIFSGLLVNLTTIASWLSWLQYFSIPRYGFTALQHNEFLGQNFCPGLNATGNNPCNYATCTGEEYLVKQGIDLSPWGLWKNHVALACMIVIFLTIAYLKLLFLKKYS

ABCG2 [2] = target: T1, ABCG2

Structure (SMILES) | EC50 (ABCG2 [1]) | radiolabelled substrate accumulation and efflux, parental vs ABCG2-overexpressin (ABCG2 [2])
c1cn2cc(-c3ccc4cn[nH]c4c3)nc(Nc3ccc(N4CCOCC4)cc3)c2n1 [GS-9973] | 420 nM | –
O=C1c2c(O)ccc(O)c2C(=O)c2c(NCCNCCO)ccc(NCCNCCO)c21 [mitoxantrone] | – | proving that the efflux of [^3H]-mitoxantrone was mediated by the ABCG2 transporter
